14 compounds from patent US4003945A, “Novel cyclopropanecarboxylates” (Sumitomo Chemical Company, Limited, priority 1973, dated 1977) can be followed below.

In brackets after ≈: the same amount, converted by molar mass.

One data set has as its system adult planthoppers. Briefly: Residual effect on sprayed rice seedlings (Example XV). The conditions noted are these: concentrate diluted to 400 times; observed 24 hours after release. The format is in vivo. As to the method:
About 20 rice seedlings, cultivated for 20 days after sowing in a flower pot of 8.5 cm in diameter, were sprayed with each of the emulsifiable concentrates obtained as in Example X which were diluted to 400 times with water. After air-drying, each pot was covered with a wire cage, into which 20 adult planthoppers were released as time elapsed. And the observation was made after 24 hours.

For data set [1], the system named is leafhoppers of resistant and susceptible strains. Briefly: Emulsion sprayed on rice seedlings, leafhoppers released (Example XVI). The format is in vivo, leafhopper. The conditions noted are these: emulsion diluted to 50 times. Here is the method: About 20 rice seedlings, cultivated for 20 days after sowing in a flower pot of 8.5 cm in diameter were sprayed with each of the present compounds (31, 32, 35, 39, 40, 42, 45, 48, 55, 59, 60, 63, 131 - 134, 139) in the form of an emulsion which were diluted to 50 times. Each pot was put into the beaker and covered with gauze, into which leafhoppers of resistant and susceptible strains, respectively, were released in each beaker. And the number of knocked down insects after 1 hour and the mortality after 24 hours were counted. As a result, the knock down per centage was more than 50% and the mortality was more than 80% in each case.

The subject of another data set is tobacco cut worm. Briefly: Dust on Chinese cabbages in the field (Example XVIII). The format is in vivo. The conditions noted are these: 5% dust, 3kg/10 ares, for 2 months. The text has this: Each 5% dust of the present compounds 31, 32, 62, 63 was spread in a ratio of 3kg/10 ares on the Chinese cabbages of 40 days after sowing in the field. And about 9,000 eggs of tobacco cut worm were put on the leaves of the Chinese cabbages per 10 ares every 5 days for a month.

The test system of data set [2] is Full grown larvae of the Northern house mosquito. Briefly: Larvicidal test in beaker with diluted emulsifiable concentrate (Example XIX). The format is in vivo. The settings on record: Table 5; after 24 hours. Here is the method: 30 Full grown larvae of the Northern house mosquito were released into the beaker with 200 ml of dilution of each emulsifiable concentrates which obtained in Example X.

The next data set has as its system adults of houseflies. Briefly: Oil preparation sprayed on Campbell's turn table (Example XX). The conditions noted are these: Musca domestica, 24 h; Table 6; 1% oil preparation 5 ml, 10 minutes exposure, next day. The format is in vivo, housefly. As to the method: The oil preparation obtained as in Example B (5 ml) was sprayed by the use of a Campbell's turn table [Soap & Sanitary Chemicals, Vol. 14, No. 6, 119 (1938) ] on 100 adults of houseflies were exposed to the spray for 10 minutes. The houseflies were then allowed to stand with feeding. On the next day, dead and alive were observed.

The nature of data set [3]: Oral acute toxicity in male mice (Example XXI). The conditions noted are these: mouse, in vivo, Table 7, male mice of about 20 g. The text has this:
An emulsion prepared by diluting with water the present compounds 31, 32, 33, 34, 35, 46, 63, in the form of an emulsifiable concentrate was orally administrated to male mice of about 20 g in body weight.

For a further data set, the system named is housefly adults. Briefly: Oil spray, Campbel's turn table, lethal concentration (Test Example 2). It counts as in vivo. The settings on record: Musca domestica, 24 h. As to the method: A group of about 100 housefly adults was exposed to descending spray for 10 minutes, thereafter was transferred to an observation cage, was fed, and was allowed to stand at room temperature.
After a day, the dead and alive were counted to calculate the lethal ratio.

The test system of data set [4] is 3rd or 4th instar larvae of tobacco cut worm. Briefly: Diluted emulsion sprayed by settling tower on larvae (Example X). The format is in vivo. The conditions noted are these: emulsion diluted to 50 times, 1 ml. As to the method:
Ten of the 3rd or 4th instar larvae of tobacco cut worm were put into a petri dish of 17 cm in diameter.
One ml of the present compound (4, 11, 28, 92, 94, 95, 109, 111) in form of an emulsion obtained in Example X, which were diluted to 50 times with water, were sprayed by means of a settling tower. The said larvae were removed into another petri dish with the leaves of the chinese cabbage leaves. Observation was made after 48 hrs. As a result, more than 90% of the larvae were dead in each case.

The subject of a further data set is adult leafhoppers. Briefly: Granule applied to rice plants in Wagner pot (Example XIII). The conditions noted are these: granule of Example W, 10 kg/10 ares. The format is in vivo, leafhopper. As to the method:
Rice plants at the tillering stage were grown in Wagner pots, and the depth of water was kept at 5 cm.
The present compound (4) obtained in Example W was put into the Wagner pot with 10 kg/10 ares, and the said pot was covered with a wire cage into which 20 adult leafhoppers were released.

Data set [5] has as its system larvae of tobacco cut worm, diamondback moth and common cabbage worms. Briefly: Fumigation of Chinese cabbages in vinyl house with heated wettable powder (Example XIV). It counts as in vivo. The settings on record: 10 grams of 40% wettable powder per 30 m^2 compartment. The text has this: In the vinyl house, the Chinese cabbages were cultivated and the leaves were parasitized with the larvae of tobacco cut worm, diamondback moth and common cabbage worms.
The vinyl house (its height was 2 m) was divided into compartments of 30 m^2 in area and 10 grams of the present compound (1, 4) in the form of 40% wettable powder was put into the plate heated by fire.

The term LC50 denotes the concentration lethal to half of the exposed cells or organisms. High values mean lower toxicity, low ones greater toxicity. Broadly, the mortality is the percentage killed. High values mean fewer survivors, low ones more survivors. What is called LD50 is the dose at which mortality reaches 50%. A low value points to a more toxic substance. As to `C#CC(C=Cc1ccccc1)OC(=O)C1C(C=C(C)C)C1(C)C` (stereo not drawn) [Compound 31, α-Ethynylcinnamyl chrysanthemate], in the data set on adult planthoppers, the “Mortality (%) After 1 day” value was 100% and the “Mortality (%) After 6 days” value came to 75.8%. In data set [1], the “knock down percentage after 1 hour” value was “more than 50%” and the “mortality after 24 hours” value is “more than 80%”. Further, the “damage of the Chinese cabbages by tobacco cut worms” value (shortened to “damage of the Chinese cabbages”) in the data set with tobacco cut worm is “the damage of the Chinese cabbages by tobacco cut worms was not found”. The same compound displayed an LC50 in data set [2] of 0.12 ppm. The compound also came in with a mortality at 1 % with adults of houseflies of 92%. This compound also had an LD50 at 48 h in data set [3] above 500 mg/kg.
For `C#CC(OC(=O)C1C(C=C(C)C)C1(C)C)C(=Cc1ccccc1)CC` (stereo not drawn) [Compound 63, α-Ethynyl-β-ethylcinnamyl chrysanthemate], in the data set on adult planthoppers, the “Mortality (%) After 1 day” value came to 100% and the “Mortality (%) After 6 days” value worked out at 53.3%. Also, in data set [1], the “knock down percentage after 1 hour” value was “more than 50%” and the “mortality after 24 hours” value is “more than 80%”. Further, the “damage of the Chinese cabbages” value with tobacco cut worm is given as “the damage of the Chinese cabbages by tobacco cut worms was not found”. Also, in [2], the LC50 is listed as 0.14 ppm. Also, the mortality at 1 % in the data set with adults of houseflies was 95%. The compound further showed an LD50 at 48 h in [3] above 600 mg/kg.
For the compound `C#CC(C=C(c1ccccc1)c1ccccc1)OC(=O)C1C(C=C(Cl)Cl)C1(C)C` (stereo not shown) [Compound 138], in the data set on adults of houseflies, the mortality at 1 % came out at 100%.
Regarding `C#CC(OC(=O)C1C(C=C(Cl)Cl)C1(C)C)C(C)=Cc1c(C)cc(OC)cc1C` (stereo not drawn) [Compound 136, α-Ethynyl-β-methyl-2,6- -dimethyl-4-methoxy cinnamyl 2',2'-dimethyl-3'2"-2"- dichlorovinyl)-cyclopropane-carboxylate], the mortality at 1 % in the data set with adults of houseflies is 90%.
`C#CC(OC(=O)C1C(C=C(Cl)Cl)C1(C)C)C(C)=Cc1ccc2c(c1)OCO2` (stereo not drawn) [Compound 139, α-Ethynyl-β-methyl-3,4-methylenedioxy-cinnamyl 2',2'-dimethyl-3'-(2",2"-dichlorovinyl)-cyclopropanecarboxylate]: in [1], the “knock down percentage after 1 hour” value was “more than 50%” and the “mortality after 24 hours” value is given as “more than 80%”. In addition, the mortality at 1 % in the data set on adults of houseflies is 95%.
In [3], `C#CC(OC(=O)C1C(C=C(C)C)C1(C)C)C(C)=Cc1ccc(C(C)C)cc1` (stereo not drawn) [Compound 46, α-Ethynyl-β-methyl-4-iso-propylcinnamyl chrysanthemate] displayed an LD50 at 48 h above 600 mg/kg.
Take `C#CC(OC(=O)C1C(C=C(C)C)C1(C)C)C(C)=Cc1ccccc1` (stereo not drawn) [Compound 32, α-Ethynyl-β-methylcinnamyl chrysanthemate]: in the data set with adult planthoppers, the “Mortality (%) After 1 day” value was 100% and the “Mortality (%) After 6 days” value is listed as 100%. Further, in [1], the “knock down percentage after 1 hour” value is “more than 50%” and the “mortality after 24 hours” value is recorded as “more than 80%”. Besides, in the data set on tobacco cut worm, the “damage of the Chinese cabbages” value is “the damage of the Chinese cabbages by tobacco cut worms was not found”. This compound displayed an LC50 in data set [2] of 0.069 ppm. For the same compound, the mortality at 1 % in the data set with adults of houseflies came to 96%. In data set [3], this compound registered an LD50 at 48 h above 500 mg/kg.
Consider `C#CC(OC(=O)C1C(C=C(C)C)C1(C)C)C(C)=Cc1ccc2c(c1)OCO2` (stereo not drawn) [Compound 35, α-Ethynyl-β-methyl-3,4-methylenedioxycinnamyl chrysanthemate], for which, in [1], the “knock down percentage after 1 hour” value was “more than 50%” and the “mortality after 24 hours” value is on record as “more than 80%”. Moreover, the median lethal dose (LD50) at 48 h in [3] was above 600 mg/kg.
Regarding `C#CC(OC(=O)C1C(C=C(C)C)C1(C)C)C(C)=CCC` (stereo not shown) [Compound 4, 1-Ethynyl-2-methyl-2-pentenyl chrysanthemate], the LC50 in the data set with housefly adults came out at 1400 µg/mL (≈ 5.1 mM). Besides, the “larvae dead after 48 hrs” value in [4] is “more than 90%”. Besides, the “leafhoppers dead after 24 hrs” value with adult leafhoppers is recorded as “more than 90%”. In addition, the “increasing of the damage” value in data set [5] is recorded as “the increasing of the damage was not found”.
Compound `C#CC(OC(=O)C1C(C=C(C)C)C1(C)C)C(C)=Cc1ccc(C)cc1` (stereo not drawn) [Compound 33, α-Ethynyl-β-methyl-4-methylcinnamyl chrysanthemate] registered an LC50 in data set [2] of 0.34 ppm. The compound also returned an LD50 at 48 h in data set [3] above 600 mg/kg.
Compound `C#CC(C=CC)OC(=O)C1C(C=C(C)C)C1(C)C` (stereo not shown) [Compound 1, 1-Ethynyl-2-butenyl chrysanthemate] gave a median lethal concentration (LC50) in the data set on housefly adults of 5500 µg/mL (≈ 22.3 mM). Also, the “increasing of the damage” value in [5] was “the increasing of the damage was not found”.
Regarding `C#CC(OC(=O)C1C(C=C(Cl)Cl)C1(C)C)C(C)=Cc1ccc(C#N)cc1` (stereo not shown) [Compound 137], the mortality at 1 % with adults of houseflies was determined as 100%.
In data set [2], `C#CC(OC(=O)C1C(C=C(C)C)C1(C)C)C(C)=Cc1ccccc1Cl` (stereo not drawn) [Compound 34, α-Ethynyl-β-methyl-2-chlorocinnamyl chrysanthemate] gave an LC50 of 0.14 ppm. In data set [3], this compound registered a 50% lethal dose (LD50) at 48 h above 600 mg/kg.
For `C#CC(C=CCc1ccccc1)OC(=O)C1C(C=C(C)C)C1(C)C` (stereo not drawn) [Compound 62, α-Ethynyl-γ-benzylallyl chrysanthemate], in the data set with adult planthoppers, the “Mortality (%) After 1 day” value was determined as 100% and the “Mortality (%) After 6 days” value is recorded as 100%. Moreover, the “damage of the Chinese cabbages” value with tobacco cut worm is “the damage of the Chinese cabbages by tobacco cut worms was not found”. The compound further registered an LC50 in data set [2] of 0.034 ppm. Further, the mortality at 1 % in the data set with adults of houseflies was 93%.
